≈ marks a conversion by molar mass, not a printed value. Where a SMILES comes first, the peptide text is derived from it. Bridges are numbered along the chain shown (N, C = ends).

Results on one molecule are retold here after paper PMC5453931, “Cathelicidin-trypsin inhibitor loop conjugate represents a promising antibiotic candidate with protease stability” (Scientific Reports, 2017).

The target in test [1] is trypsin. Briefly: Trypsin inhibition assay (NBLAN hydrolysis, Dixon method). It is filed as biochemical. The conditions noted are these: 50 mM Tris–HCl pH 7.8, trypsin 0.1 mg/mL, 5 min pre-incubation at 37 °C, substrate NBLAN 48, 96, 192 μg/mL, 405 nm. As to the method: The inhibition effect on the hydrolysis of synthetic chromogenic substrate by trypsin was assayed in 50 mM Tris–HCl, pH 7.8 buffer at room temperature. The trypsin of final concentration of 0.1 mg/mL and different amounts of the hybrid peptide (final concentrations ranging from 0 to 0.16 μg/mL) were pre-incubated for 5 min at 37 °C. N-α-Benzoyl-DL-arginine p-nitroanilide hydrochloride (NBLAN) was used as a substrate for trypsin. The reaction was initiated by the addition of NBLAN with a final concentration of 48, 96 and 192 μg/mL, respectively. The formation of yellow product, p-nitroaniline was monitored continuously at 405 nm[61]. The inhibition constant Ki of the hybrid peptides were determined according to the method of Dixon (1953)[62].

Test [2] concerns 08030209. Put plainly: microbe, parasite or virus in culture. It is filed as cell-based, Arcyria cinerea. To be noted: Fungi; two-fold broth microdilution, 37 °C, 18 h; mean of three independent experiments in duplicates. As to the method: (§1) A two-fold broth microdilution method described in our previous paper was used to determine the antimicrobial activities of parental and hybrid peptides. More than 30 strains including Gram-negative bacteria, Gram-positive bacteria and fungi were used in the current assay, in which the standard strains were stored in our lab and the clinical strains were collected from local hospitals. Briefly, bacteria were incubated in Mueller-Hinton broth (MH broth) at 37 °C to exponential phase and diluted to 10^6 CFU/mL. A serial dilution of peptide sample were prepared in 96-well microtiter plates (50 μL) and mixed with equal volume of microbial inoculums (50 μL). The plate was slowly shaken in the microbial incubator, and measured at A595 after incubation at 37 °C for 18 h. The minimal concentrations at which no microbial growth occurred were recorded as MIC (minimal inhibitory concentration) values. The traditional antibiotic ampicillin was used as positive control. The results are shown in an average of the MICs obtained from three independent experiments.

Test [3] deals with K. Pneumoniae 08040202. Put plainly: microbe, parasite or virus in culture. The conditions noted are these: Gram-negative; two-fold broth microdilution, MH broth, 37 °C, 18 h; mean of three independent experiments in duplicates. Type of test: cell-based. As to the method: as §1
For orientation: Dilution methods test growth across graded concentrations, often in twofold steps.

For test [4], the system named is Shigella dysenteriae 0804203. Put plainly: microbe, parasite or virus in culture. It is filed as cell-based. To be noted: Gram-negative; two-fold broth microdilution, MH broth, 37 °C, 18 h; mean of three independent experiments in duplicates. As for the experimental part: as §1
The test system of test [5] is Bacillus subtilis 08042313. Briefly: microbe, parasite or virus in culture. It is filed as cell-based. To be noted: Gram-positive; two-fold broth microdilution, MH broth, 37 °C, 18 h; mean of three independent experiments in duplicates. As for the experimental part: as §1
Test [6] deals with Escherichia coli ATCC25922. Briefly: microbe, parasite or virus in culture. Type of test: cell-based. The conditions noted are these: Gram-negative; two-fold broth microdilution, MH broth, 37 °C, 18 h; mean of three independent experiments in duplicates. As to the method:
as §1

For test [7], the system named is Candida glabrata 08A802. Put plainly: microbe, parasite or virus in culture. It is filed as cell-based. To be noted: Fungi; two-fold broth microdilution, 37 °C, 18 h; mean of three independent experiments in duplicates. As for the experimental part:
as §1

The test system of test [8] is S. Aureus 08032706. Briefly: microbe, parasite or virus in culture. The conditions noted are these: Gram-positive; two-fold broth microdilution, MH broth, 37 °C, 18 h; mean of three independent experiments in duplicates. It is filed as cell-based. As for the experimental part: as §1
For test [9], the system named is Candida albicans 08030102. Put plainly: microbe, parasite or virus in culture. Type of test: cell-based. To be noted: Fungi; two-fold broth microdilution, 37 °C, 18 h; mean of three independent experiments in duplicates. As to the method: as §1
Test [10] deals with Enterococcus faecium 08052315. Put plainly: microbe, parasite or virus in culture. To be noted: Gram-positive; two-fold broth microdilution, MH broth, 37 °C, 18 h; mean of three independent experiments in duplicates. It is filed as cell-based. As to the method: as §1
Test [11] concerns Vibrio cholerae. Briefly: microbe, parasite or virus in culture. It is filed as cell-based. The conditions noted are these: Aquatic pathogenic bacteria; two-fold broth microdilution, 37 °C, 18 h; mean of three independent experiments in duplicates. As for the experimental part:
as §1

The test system of test [12] is Aeromonas veronii. Put plainly: microbe, parasite or virus in culture. Type of test: cell-based. The conditions noted are these: Aquatic pathogenic bacteria; two-fold broth microdilution, 37 °C, 18 h; mean of three independent experiments in duplicates. As to the method:
as §1

Test [13] deals with Vibrio brasiiensis. Put plainly: microbe, parasite or virus in culture. The conditions noted are these: Aquatic pathogenic bacteria; two-fold broth microdilution, 37 °C, 18 h; mean of three independent experiments in duplicates. It is filed as cell-based. As for the experimental part: as §1
The test system of test [14] is Aeromonas sobria. Put plainly: microbe, parasite or virus in culture. Type of test: cell-based. To be noted: Aquatic pathogenic bacteria; two-fold broth microdilution, 37 °C, 18 h; mean of three independent experiments in duplicates. As to the method:
as §1

In test [15] the test system is E. Coli 08032823. Briefly: microbe, parasite or virus in culture. It is filed as cell-based. The conditions noted are these: Gram-negative; two-fold broth microdilution, MH broth, 37 °C, 18 h; mean of three independent experiments in duplicates. As for the experimental part:
as §1

Test [16] relates to S. Aureus 08032810. Briefly: microbe, parasite or virus in culture. Type of test: cell-based. To be noted: Gram-positive; two-fold broth microdilution, MH broth, 37 °C, 18 h; mean of three independent experiments in duplicates. As for the experimental part: as §1
In test [17] the test system is K. Pneumoniae 08031012. Briefly: microbe, parasite or virus in culture. The conditions noted are these: Gram-negative; two-fold broth microdilution, MH broth, 37 °C, 18 h; mean of three independent experiments in duplicates. It is filed as cell-based. As to the method:
as §1

Test [18] relates to P. Aeruginosa 08021015. Briefly: microbe, parasite or virus in culture. It is filed as cell-based. The conditions noted are these: Gram-negative; two-fold broth microdilution, MH broth, 37 °C, 18 h; mean of three independent experiments in duplicates. As for the experimental part:
as §1

Test [19] relates to Staphylococcus epidermidis. Briefly: MIC, two-fold broth microdilution. Type of test: cell-based. To be noted: Gram-positive; two-fold broth microdilution, MH broth, 37 °C, 18 h; mean of three independent experiments in duplicates. As for the experimental part:
as §1

Test [20] concerns Vibrio Parahaemolyticus. Briefly: MIC, two-fold broth microdilution. Type of test: cell-based. To be noted: Aquatic pathogenic bacteria; two-fold broth microdilution, 37 °C, 18 h; mean of three independent experiments in duplicates. As for the experimental part: as §1
Test [21] relates to E. Coli 08032813. Put plainly: MIC, two-fold broth microdilution. Type of test: cell-based. To be noted: Gram-negative; two-fold broth microdilution, MH broth, 37 °C, 18 h; mean of three independent experiments in duplicates. As to the method: as §1
Test [22] relates to E. coli 08040726. Briefly: MIC, two-fold broth microdilution (second listing of the strain number). Type of test: cell-based. The conditions noted are these: Gram-negative, MH broth, 37 °C, 18 h, mean of three independent experiments in duplicates. As for the experimental part:
as §1

Usually Ki stands for the equilibrium dissociation constant of an inhibitor or competing ligand from its target. In test [1], `CC[C@H](C)[C@@H]1NC(=O)[C@H](CO)NC(=O)[C@H](CCCCN)NC(=O)[C@H]([C@@H](C)O)NC(=O)[C@H](Cc2c[nH]c3ccccc23)NC(=O)[C@@H](N)CSSC[C@@H](C(=O)N[C@@H](CCCCN)C(=O)N[C@@H](Cc2ccccc2)C(=O)N[C@@H](Cc2ccccc2)C(=O)N[C@@H](CCCCN)C(=O)N[C@@H](CCCNC(=N)N)C(=O)N[C@@H](CC(C)C)C(=O)N[C@@H](CC(C)C)C(=O)N[C@@H](CCCCN)C(=O)N[C@@H](CO)C(=O)N[C@H](C(=O)N[C@@H](CCCNC(=N)N)C(=O)N[C@@H](CCCNC(=N)N)C(=O)N[C@@H](C)C(=O)N[C@H](C(=O)N[C@@H](CCCCN)C(=O)N[C@@H](CCCCN)C(=O)N[C@@H](Cc2ccccc2)C(N)=O)C(C)C)C(C)C)NC(=O)[C@@H]2CCCN2C(=O)[C@H](CCCCN)NC(=O)[C@@H]2CCCN2C(=O)[C@@H]2CCCN2C1=O` [TIH3] (H-CWTKSIPPKPCKFFKRLLKSVRRAVKKF-NH2; disulfide 1-11) showed a Ki of 7.5 µM. Further, the “MIC Arcyria cinerea 08030209” value in [2] was “— (no detectable activity in MIC assay in dose of 200 µg/mL or in trypsin inhibition assay at concentration of 160 μg/mL)”. Also, in test [3], the “MIC K. Pneumoniae 08040202” value is “— (no detectable activity in MIC assay in dose of 200 µg/mL or in trypsin inhibition assay at concentration of 160 μg/mL)”. Besides, the “MIC Shigella dysenteriae 0804203” value in test [4] is “— (no detectable activity in MIC assay in dose of 200 µg/mL or in trypsin inhibition assay at concentration of 160 μg/mL)”. The “MIC Bacillus subtilis 08042313” value in test [5] was “— (no detectable activity in MIC assay in dose of 200 µg/mL or in trypsin inhibition assay at concentration of 160 μg/mL)”. Also, in [6], the “MIC Escherichia coli ATCC25922” value is “— (no detectable activity in MIC assay in dose of 200 µg/mL or in trypsin inhibition assay at concentration of 160 μg/mL)”. Further, the “MIC Candida glabrata 08A802” value in test [7] was “— (no detectable activity in MIC assay in dose of 200 µg/mL or in trypsin inhibition assay at concentration of 160 μg/mL)”. Further, the “MIC S. Aureus 08032706” value in test [8] is listed as “— (no detectable activity in MIC assay in dose of 200 µg/mL or in trypsin inhibition assay at concentration of 160 μg/mL)”. For the same molecule, in [9], the “MIC Candida albicans 08030102” value was “— (no detectable activity in MIC assay in dose of 200 µg/mL or in trypsin inhibition assay at concentration of 160 μg/mL)”. The “MIC Enterococcus faecium 08052315” value in test [10] was “— (no detectable activity in MIC assay in dose of 200 µg/mL or in trypsin inhibition assay at concentration of 160 μg/mL)”. Moreover, the “MIC Vibrio cholerae” value in test [11] is given as “— (no detectable activity in MIC assay in dose of 200 µg/mL or in trypsin inhibition assay at concentration of 160 μg/mL)”. In test [12], the “MIC Aeromonas veronii” value is listed as “— (no detectable activity in MIC assay in dose of 200 µg/mL or in trypsin inhibition assay at concentration of 160 μg/mL)”. In test [13], the “MIC Vibrio brasiiensis” value was “— (no detectable activity in MIC assay in dose of 200 µg/mL or in trypsin inhibition assay at concentration of 160 μg/mL)”. Further, the “MIC Aeromonas sobria” value in test [14] is on record as “— (no detectable activity in MIC assay in dose of 200 µg/mL or in trypsin inhibition assay at concentration of 160 μg/mL)”. For the same molecule, the “MIC E. Coli 08032823” value in test [15] was “— (no detectable activity in MIC assay in dose of 200 µg/mL or in trypsin inhibition assay at concentration of 160 μg/mL)”. In test [16], the “MIC S. Aureus 08032810” value is reported as “— (no detectable activity in MIC assay in dose of 200 µg/mL or in trypsin inhibition assay at concentration of 160 μg/mL)”. Also, the “MIC K. Pneumoniae 08031012” value in [17] was “— (no detectable activity in MIC assay in dose of 200 µg/mL or in trypsin inhibition assay at concentration of 160 μg/mL)”. The “MIC P. Aeruginosa 08021015” value in test [18] is “— (no detectable activity in MIC assay in dose of 200 µg/mL or in trypsin inhibition assay at concentration of 160 μg/mL)”. Further, in test [19], the “MIC Staphylococcus epidermidis” value is “— (no detectable activity in MIC assay in dose of 200 µg/mL or in trypsin inhibition assay at concentration of 160 μg/mL)”. Moreover, the “MIC Vibrio Parahaemolyticus” value in [20] was 37.5 µg/mL (≈ 11.1 µM). For the same molecule, in [21], the “MIC E. Coli 08032813” value is given as “— (no detectable activity in MIC assay in dose of 200 µg/mL or in trypsin inhibition assay at concentration of 160 μg/mL)”. In addition, the “MIC E. Coli 08040726 (second line with this strain number)” value in test [22] is listed as “— (no detectable activity in MIC assay in dose of 200 µg/mL or in trypsin inhibition assay at concentration of 160 μg/mL)”.
